What was measured:
[1] = molecular target: T1, recombinant human KDM4A (Homo sapiens, UniProt O75164); experiment: 14CO2 capture enzymatic assay (decarboxylation of [1-14C] αKG), KDM4A; format: biochemical; conditions: 10 μM [1-14C] αKG, 90 μM non-labeled αKG, 50 μM peptide substrate, 37° C., 1 hour, final 1% DMSO
T1 construct: made in house
T1 sequence (O75164 1-359 limits assumed): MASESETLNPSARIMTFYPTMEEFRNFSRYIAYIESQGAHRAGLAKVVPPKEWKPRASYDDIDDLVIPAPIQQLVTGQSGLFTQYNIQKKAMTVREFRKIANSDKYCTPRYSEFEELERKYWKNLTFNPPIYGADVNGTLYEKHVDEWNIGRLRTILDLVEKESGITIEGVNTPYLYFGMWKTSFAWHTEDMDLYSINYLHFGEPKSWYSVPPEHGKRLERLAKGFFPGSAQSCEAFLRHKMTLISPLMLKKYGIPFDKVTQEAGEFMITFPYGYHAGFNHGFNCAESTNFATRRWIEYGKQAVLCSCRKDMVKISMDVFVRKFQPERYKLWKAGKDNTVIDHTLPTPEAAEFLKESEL
In short: (§1)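 Truncated recombinant human KDM5B (H3K4me3 peptide) or KDM4A (H3K9me3 peptide), 50 μM peptide, with 10 μM [1-14C]αKG plus 90 μM unlabeled αKG, 10 μM Fe(SO4), 2 mM ascorbate in pH 7.4 HEPES, 1 h at 37 °C, 1% DMSO. Released 14CO2 trapped on Ba(OH)2 filter; IC50 by non-linear fit.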

[2] = molecular target: T2, recombinant human KDM5B (Homo sapiens, UniProt Q9UGL1); experiment: 14CO2 capture enzymatic assay (decarboxylation of [1-14C] αKG), KDM5B; format: biochemical; conditions: 10 μM [1-14C] αKG, 90 μM non-labeled αKG, 50 μM peptide substrate, 37° C., 1 hour, final 1% DMSO
T2 sequence (Q9UGL1 374-755 limits assumed): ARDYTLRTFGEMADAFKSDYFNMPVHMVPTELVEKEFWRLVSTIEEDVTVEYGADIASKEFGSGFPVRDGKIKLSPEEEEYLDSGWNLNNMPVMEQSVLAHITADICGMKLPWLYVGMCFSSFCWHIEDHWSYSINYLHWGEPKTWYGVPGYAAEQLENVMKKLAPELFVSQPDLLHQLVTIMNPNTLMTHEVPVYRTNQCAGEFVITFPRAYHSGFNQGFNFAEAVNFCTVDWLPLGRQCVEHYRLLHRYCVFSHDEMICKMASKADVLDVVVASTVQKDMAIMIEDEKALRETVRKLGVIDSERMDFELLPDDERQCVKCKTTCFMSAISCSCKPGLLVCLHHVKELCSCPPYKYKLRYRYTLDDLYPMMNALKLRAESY
In short: as §1

Row | Structure (SMILES) | IC50 [1] | IC50 [2]
1 | Cc1ccccc1Cc1cc(C#N)c(O)c(C(=O)CCC(=O)O)n1 [Example 36, 4-[4-Cyano-3-hydroxy-6-(2-methyl-benzyl)-pyridin-2-yl]-4-oxo-butyric acid] | 3.7 µM | 70 nM
2 | N#Cc1cc(-c2ccc(Cl)cc2)cc(C(=O)CCC(=O)O)c1O [Example 118, 4-(4′-Chloro-5-cyano-4-hydroxy-biphenyl-3-yl)-4-oxo-butyric acid] | > 40 µM | 160 nM
3 | N#Cc1cc(-c2ccc(-c3ccccc3)cc2)nc(C(=O)CCC(=O)O)c1O [Example 75, 4-(6-Biphenyl-4-yl-4-cyano-3-hydroxy-pyridin-2-yl)-4-oxo-butyric acid] | 20 µM | 90 nM
4 | N#Cc1cc(Cc2c(F)cc(F)cc2F)nc(C(=O)CCC(=O)O)c1O [Example 55, 4-[4-Cyano-3-hydroxy-6-(2,4,6-trifluoro-benzyl)-pyridin-2-yl]-4-oxo-butyric acid] | 34 µM | 220 nM
5 | N#Cc1cc(Cc2c(Cl)cc(Cl)cc2Cl)cc(C(=O)CCC(=O)O)c1O [Example 131, 4-[3-Cyano-2-hydroxy-5-(2,4,6-trichloro-benzyl)-phenyl]-4-oxo-butyric acid] | > 40 µM | 50 nM
6 | N#Cc1cc(Cc2ccc3ccccc3c2)nc(C(=O)CCC(=O)O)c1O [Example 24, 4-(4-Cyano-3-hydroxy-6-naphthalen-2-ylmethyl-pyridin-2-yl)-4-oxo-butyric acid] | > 40 µM | 520 nM
7 | N#Cc1cc(Cc2ccccc2F)nc(C(=O)CCC(=O)O)c1O [Example 43, 4-[4-Cyano-6-(2-fluoro-benzyl)-3-hydroxy-pyridin-2-yl]-4-oxo-butyric acid] | 37 µM | 150 nM
8 | N#Cc1cc(C(F)(F)F)c(O)c(C(=O)CCC(=O)O)n1 [Example 8, 4-(6-Cyano-3-hydroxy-4-trifluoromethyl-pyridin-2-yl)-4-oxo-butyric acid] | 13 µM | 270 nM
9 | N#Cc1cc(-c2ccc(C(F)(F)F)cc2)nc(C(=O)CCC(=O)O)c1O [Example 26, 4-[4-Cyano-3-hydroxy-6-(4-trifluoromethyl-phenyl)-pyridin-2-yl]-4-oxo-butyric acid] | > 40 µM | 200 nM
10 | Cc1cc(C#N)ccc1-c1cc(C#N)c(O)c(C(=O)CCC(=O)O)n1 [Example 99, 4-[4-Cyano-6-(4-cyano-2-methyl-phenyl)-3-hydroxy-pyridin-2-yl]-4-oxo-butyric acid] | > 40 µM | 270 nM
11 | N#Cc1cc(Cc2c(F)cccc2F)nc(C(=O)CCC(=O)O)c1O [Example 53, 4-[4-Cyano-6-(2,6-difluoro-benzyl)-3-hydroxy-pyridin-2-yl]-4-oxo-butyric acid] | > 40 µM | 250 nM
12 | N#Cc1cc(-c2cccc(F)c2Cl)nc(C(=O)CCC(=O)O)c1O [Example 107, 4-[6-(2-Chloro-3-fluoro-phenyl)-4-cyano-3-hydroxy-pyridin-2-yl]-4-oxo-butyric acid] | > 40 µM | 320 nM
13 | N#Cc1cc(Cc2ccccc2)nc(C(=O)CCC(=O)O)c1O [Example 10, 4-(6-Benzyl-4-cyano-3-hydroxy-pyridin-2-yl)-4-oxo-butyric acid] | > 40 µM | 160 nM
14 | N#Cc1cc(Cc2ccccc2)cc(C(=O)CCC(=O)O)c1O [Example 117, 4-(5-Benzyl-3-cyano-2-hydroxy-phenyl)-4-oxo-butyric acid] | > 40 µM | 280 nM
15 | Cc1ccc(Cl)cc1-c1cc(C#N)c(O)c(C(=O)CCC(=O)O)n1 [Example 91, 4-[6-(5-Chloro-2-methyl-phenyl)-4-cyano-3-hydroxy-pyridin-2-yl]-4-oxo-butyric acid] | > 40 µM | 170 nM
16 | Cc1ccc(-c2cc(C#N)c(O)c(C(=O)CCC(=O)O)n2)cc1 [Example 73, 4-(4-Cyano-3-hydroxy-6-p-tolyl-pyridin-2-yl)-4-oxo-butyric acid] | > 40 µM | 110 nM
17 | N#Cc1cc(-c2ccccc2Cl)nc(C(=O)CCC(=O)O)c1O [Example 70, 4-[6-(2-Chloro-phenyl)-4-cyano-3-hydroxy-pyridin-2-yl]-4-oxo-butyric acid] | > 40 µM | 300 nM
18 | N#Cc1cc(Cc2c(Cl)cccc2Cl)nc(C(=O)CCC(=O)O)c1O [Example 32, 4-[4-Cyano-6-(2,6-dichloro-benzyl)-3-hydroxy-pyridin-2-yl]-4-oxo-butyric acid] | 12 µM | 240 nM

Row | Structure (SMILES) | IC50 [1] | IC50 [2]
19 | Cc1ccc(F)cc1-c1cc(C#N)c(O)c(C(=O)CCC(=O)O)n1 [Example 82, 4-[4-Cyano-6-(5-fluoro-2-methyl-phenyl)-3-hydroxy-pyridin-2-yl]-4-oxo-butyric acid] | > 40 µM | 350 nM
20 | CSc1cc(C#N)c(O)c(C(=O)CCC(=O)O)n1 [Example 5, 4-(4-Cyano-3-hydroxy-6-methylsulfanyl-pyridin-2-yl)-4-oxo-butyric acid] | 71 µM | 240 nM
21 | N#Cc1cc(Cc2c(F)cccc2C(F)(F)F)nc(C(=O)CCC(=O)O)c1O [Example 60, 4-[6-(2-Fluoro-6-trifluoromethyl-benzyl)-4-cyano-3-hydroxy-pyridin-2-yl]-4-oxo-butyric acid] | > 40 µM | 330 nM
22 | N#Cc1cc(Oc2ccc(Cl)cc2)cc(C(=O)CCC(=O)O)c1O [Example 137, 4-[5-(4-Chloro-phenoxy)-3-cyano-2-hydroxy-phenyl]-4-oxo-butyric acid] | > 40 µM | 820 nM
23 | N#Cc1cc(C#N)c(O)c(C(=O)CCC(=O)O)n1 [Example 3, 4-(4,6-Dicyano-3-hydroxy-pyridin-2-yl)-4-oxo-butyric acid] | 16 µM | 110 nM
24 | Cc1cc(F)cc(C)c1Cc1cc(C#N)c(O)c(C(=O)CCC(=O)O)n1 [Example 151, 4-[4-Cyano-6-(4-fluoro-2,6-dimethyl-benzyl)-3-hydroxy-pyridin-2-yl]-4-oxo-butyric acid] | 1.5 µM | 500 nM
25 | Cc1c(-c2cc(C#N)c(O)c(C(=O)CCC(=O)O)n2)cccc1C(F)(F)F [Example 95, 4-[4-Cyano-3-hydroxy-6-(2-methyl-3-trifluoromethyl-phenyl)-pyridin-2-yl]-4-oxo-butyric acid] | > 40 µM | 350 nM
26 | N#Cc1cc(C2CCCCC2)nc(C(=O)CCC(=O)O)c1O [Example 25, 4-(4-Cyano-6-cyclohexyl-3-hydroxy-pyridin-2-yl)-4-oxo-butyric acid] | > 40 µM | 330 nM
27 | N#Cc1cc(-c2ccc(Cl)c3ccccc23)nc(C(=O)CCC(=O)O)c1O [Example 110, 4-[6-(4-Chloro-naphthalen-1-yl)-4-cyano-3-hydroxy-pyridin-2-yl]-4-oxo-butyric acid] | > 40 µM | 270 nM
28 | N#Cc1cc(CCc2ccccc2)nc(C(=O)CCC(=O)O)c1O [Example 15, 4-(4-Cyano-3-hydroxy-6-phenethyl-pyridin-2-yl)-4-oxo-butyric acid] | > 40 µM | 390 nM
29 | N#Cc1cc(-c2cccc3ccccc23)nc(C(=O)CCC(=O)O)c1O [Example 68, 4-(4-Cyano-3-hydroxy-6-naphthalen-1-yl-pyridin-2-yl)-4-oxo-butyric acid] | > 40 µM | 280 nM
30 | N#Cc1cc(-c2cccc(-c3ccccc3)c2)nc(C(=O)CCC(=O)O)c1O [Example 74, 4-(6-Biphenyl-3-yl-4-cyano-3-hydroxy-pyridin-2-yl)-4-oxo-butyric acid] | > 40 µM | 60 nM
31 | N#Cc1cc(-c2ccccc2)nc(C(=O)CCC(=O)O)c1O [Example 7, 4-(4-Cyano-3-hydroxy-6-phenyl-pyridin-2-yl)-4-oxo-butyric acid] | > 40 µM | 210 nM
32 | Cc1cc(Cl)c(Cc2cc(C#N)c(O)c(C(=O)CCC(=O)O)n2)c(Cl)c1 [Example 127, 4-[4-Cyano-6-(2,6-dichloro-4-methyl-benzyl)-3-hydroxy-pyridin-2-yl]-4-oxo-butyric acid] | > 40 µM | 60 nM
33 | N#Cc1cc(-c2ccccc2Cl)cc(C(=O)CCC(=O)O)c1O [Example 119, 4-(2′-Chloro-5-cyano-4-hydroxy-biphenyl-3-yl)-4-oxo-butyric acid] | > 40 µM | 280 nM
34 | N#Cc1cc(-c2cccnc2)nc(C(=O)CCC(=O)O)c1O [Example 13, 4-(4-Cyano-5-hydroxy-[2,3′]bipyridinyl-6-yl)-4-oxo-butyric acid] | 22 µM | 140 nM
35 | N#Cc1nc(-c2ccccc2)cc(C(=O)CCC(=O)O)c1O [Example 157, 4-(2-Cyano-3-hydroxy-6-phenyl-pyridin-4-yl)-4-oxo-butyric acid] | > 40 µM | 1400 nM
